Results from patent publication US20230143215A1 (priority 2020, published 2023).

Columns and labels:
Format in all cases: cell-based, human
[1] = test system: PBMC from SARS-CoV-2 convalescent donors
[2] = test system: autologous T cells of healthy donors; design: key: +: positive response
[3] = test system: autologous T cells of healthy donors; design: key: +: positive response; remark: listed apart in the source
[4] = test system: autologous T cells of healthy donors; design: key: +: positive response; remark: listed apart in the source
[5] = test system: autologous T cells of healthy donors; design: key: +: positive response; remark: listed apart in the source

| Sequence | IFNγ ELISpot response [1] | immunogenicity compared to the other SLPs [1] | ELISpot [2] | ELISA [3] | Proliferation [4] | positive response detected on one time point with two different assays [5] | positive response detected on two time points with the same assay [5] |
| --- | --- | --- | --- | --- | --- | --- | --- |
| IRQGTDYKHWPQIAQFAPSASAFFG [SLP 46] | high responses | remarkably immunogenic | – | – | – | – | – |
| ALNTLVKQLSSNFGAISSVLNDILSRLDKV [SLP 9] | – | – | + | + | + | + | – |
| LFARTRSMWSFNPETNILLNV [SLP 19] | high responses | – | – | + | + | + | + |
| PLVDLPIGINITRFQTLLALHRSYLTPGDSSSG [SLP 32] | – | – | – | + | + | – | + |
| GNGGDAALALLLLDRLNQLESKMSGKGQ [SLP 39] | – | – | + | + | + | + | + |
